Here are results for two compounds from US4254124A, “Antidepressant agent” (priority 1979, dated 1981).

The subject of data set [1] is mouse. As to the kind of experiment: Mouse, tail clip (analgetic). In kind it is in vivo. The following applies: oral. The text has this:
Mouse, tail clip (analgetic)^1
^1 Bianchi, et al., Brit. J. of Pharmacology 9, 280 (1954).

The nature of data set [2]: animal tests, propensity for adverse reactions (general statement). In kind it is in vivo. The following applies: central nervous system depression, hypotensive action, and others; vs trazodone. On the procedure:
More particularly, in the measurement of spontaneous motor activity in the mouse using the device and method described by Kissel in U.S. Pat. No. 3,100,473 patented Aug. […] In contrast, trazodone at a dose of 15.3 mg./kg. caused a 30% reduction in spontaneous motor activity. […] Other animal test results in which MJ 12762 has been compared to trazodone are arranged in the following table.

In data set [3] the test system is alpha-adrenergic. Put plainly: blood pressure response to 1-epinephrine (alpha-adrenergic blocking action), anesthetized dog. In kind it is in vivo.
In data set [4] the test system is mouse. Put plainly: Inhibition of pernicious preening in mice (anti-psychotic or analgetic). In kind it is in vivo. The following applies: oral.
Source text: mice (anti-psychotic or analgetic)^3
Data set [5] in a line: animal tests, antidepressant activity (general statement). The class given is in vivo.
Data set [6] can be described thus: in vivo. The note with it: mouse, po.
Source text: (§1) ^4 Groups of 10 mice treated variously with geometrically increasing
(§2) doses of test compound with observations of lethal toxicity (ALD50)
(§3) and for first signs of pharmacologic activity (ATD50).
Data set [7] concerns mouse. Put plainly: reserpine-induced ptosis prevention (oral pretreatment). In kind it is in vivo. The following applies: for ED50: Mus musculus, po, p.o. before reserpine 2.0 mg./kg. i.v., prevention in 50% of the animals.
In data set [8] the test system is mouse. As to the kind of experiment: spontaneous motor activity. In kind it is in vivo. An excerpt: More particularly, in the measurement of spontaneous motor activity in the mouse using the device and method described by Kissel in U.S. Pat. No. 3,100,473 patented Aug.
Data set [9] has as its system mouse. As to the kind of experiment: ALD50/ATD50 Mouse (lethal toxicity and first signs of pharmacologic activity).
Source text: as §1, §2, §3
Test in data set [10]: as above
The following applies: mouse, in vivo, po.
Source text: as §1, §2, §3

Data set [11] relates to mouse. As to the kind of experiment: Reduction of phenylquinone writhing in mice (analgetic). The class given is in vivo. The note with it: oral. An excerpt: Reduction of phenylquinone writhing
^2 Hendershot, et al., J. Pharmacol. & Exptl. Ther. 125, 237 (1959).
On the technique in general: In writhing tests, fewer writhes than in controls are read as antinociception.

For data set [12], the system named is dog. As to the kind of experiment: carotid arterial blood pressure in pentobarbital anesthetized dog. The class given is in vivo. The following applies: 1 and 10 mg./kg. intravenously.
For data set [13] the following is noted: U.S. Pat. No. 3,381,009; cited from earlier work.
Data set [14] relates to patients. The following applies: cited from earlier work.
Where [15] appears, read: vs imipramine, Fabre et al. 1979.

The term ED50 denotes the dose that gives a 50% effect, or the effect in half of the subjects. For orientation: LD50 means the dose expected to kill half of the subjects tested. A low value points to greater toxicity. As usually defined, the TD50 is the dose at which the toxic effect under study appears in half of the subjects. As to `O=c1n(CCCN2CCN(c3cccc(C(F)(F)F)c3)CC2)nc2ccccn12` [MJ 12762, 2-[3-[4-[3-(Trifluoromethyl)phenyl]-1-piperazinyl]propyl]-1,2,4-triazolo[4,3-a]pyridin-3(2H)-one], the ED50 in data set [1] came out at 94 mg/kg; in data set [7], 14 mg/kg; in [11], 6.1 mg/kg. Further, in [2], the “propensity for adverse reactions” value is given as “significantly reduced propensity for adverse reactions”. In data set [3] (intravenous doses of 1 and 10 mg./kg.), the “effect on the blood pressure response to 1-epinephrine (alpha-adrenergic blocking action)” value is “lack of alpha-adrenergic blocking action”. Further, the “inhibition of pernicious preening, activity in words” value in data set [4] was “Inactive”. For the same compound, the “inhibition of pernicious preening, animals responding” value in data set [4] (at 31 mg./kg.) was 2 of 10. Further, in [5], the “antidepressant activity relative to trazodone” value is “comparable in antidepressant activity to trazodone”. In data set [6], this compound registered an LD50 of 250 to 500 mg/kg. For the same compound, in data set [7] (p.o., vs trazodone), the “potency relative to trazodone, reserpine ptosis” value is reported as “two to three times more potent than trazodone”. Besides, in data set [8] (20, 40 and 80 mg. per kg. orally), the “effect on spontaneous motor activity” value was “neither stimulation nor depression”. Besides, in data set [9] (mouse), the “acute toxicity relative to trazodone” value is on record as “somewhat greater than that of trazodone”. Besides, the “propensity for signs of overt pharmacologic activity unrelated to utility” value in data set [9] (vs trazodone) is on record as “reduced as compared to trazodone”. In data set [10], this compound returned a TD50 of 8 to 15.7 mg/kg. In addition, the “effect on blood pressure” value in [12] was “without effect on blood pressure”.

For `O=c1n(CCCN2CCN(c3cccc(Cl)c3)CC2)nc2ccccn12` [trazodone, 2-[3-[4-(3-chlorophenyl)-1-piperazinyl]propyl]-1,2,4-triazolo[4,3-a]pyridin-3(2H)-one, reference compound], the “effect on the blood pressure response to 1-epinephrine bitartrate (alpha-adrenergic blocking action)” value in [3] (10 mg./kg. intravenously) is reported as “blocked the effect of 1-epinephrine bitartrate”. Besides, the ED50 in data set [4] (Mus musculus) was 43 mg/kg. Further, the ED50 in data set [7] is 36 mg/kg. In addition, in data set [8] (15.3 mg./kg.), the “reduction in spontaneous motor activity” value was determined as 30%. This compound yielded a TD50 in [10] of 2 to 4 mg/kg. In data set [13], the “pharmacological action in various animal tests” value is “tranquilizing action, hypotensive action, and analgesic action”. For the same compound, the “effect on blood pressure” value in data set [12] was “depressor response”. In addition, in data set [14] (endogenous or neurotic depression), the “adverse reactions sometimes observed in patients” value was “hypotension,fatigue, drowsiness, and nasal or sinus congestion”. Also, in [14] (setting [15]), the “antidepressant effectiveness in clinical use” value is recorded as “equivalent in effectiveness to imipramine” and the “side effects in clinical use” value is on record as “fewer side effects”.
